US20260206757A1, “METHODS OF CONTROLLING UNDESIRABLE PLANTS WITH PPO HERBICIDES AND COMBINATIONS IN HERBICIDE TOLERANT CROP PLANTS” (BASF AGRO B.V., priority 2022, published 2026)

What was measured:
[1] = tested on: HELAN Pacino; experiment: Greenhouse experiment, crop safety of sunflower; format: in vivo, Helianthus annuus; conditions: scale 0 to 100%
Procedure: (§1) For the post emergence treatment, the plants were first grown to the 2 to 4 leaf stage (GS 12/14). The plants were cultivated due to their individual requirements at 10-25° C. and 20-35° C. The plants were irrigated as required.
(§2) Here, the herbicidal compositions were suspended or emulsified in water as distribution medium and sprayed using finely distributing nozzles. 1% methylated seed oil (MSO) has been added as adjuvant to each of the solo and mixture treatments.
(§3) In the greenhouse experiments, the herbicidal activity for the individual herbicidal compositions (solo and mixture applications) was assessed 20/21 days after treatment (DAT).
(§4) The evaluation for the damage on undesired weeds caused by the chemical compositions was carried out using a scale from 0 to 100%, compared to the untreated control plants. Here, 0 means no damage and 100 means complete destruction of the plants.

[2] = tested on: HELAN w F(383)I; experiment: Greenhouse experiment, crop safety of PPO inhibitor tolerant sunflower; format: in vivo, Helianthus annuus; conditions: scale 0 to 100%
Procedure: as §1, §2, §3, §4

[3] = tested on: sunflower; conditions: applied to sunflower with at least two true leaves; cited from earlier work
[4] = tested on: Amaranthus retroflexus; experiment: Field experiment, post-emergence herbicidal activity; format: in vivo; conditions: AMARE, postemergence
Procedure: (§5) Trial Objective: Saflufenacil in tank mix with Pendimethalin efficacy on weeds and grasses in early post-emergence of the weeds
(§6) On field test sites, natural weed infestation was treated, pre-emergence of the weeds on bare soil or post-emergence of the weeds.
(§7) For the post emergence treatment, the weedy plants were treated between the 2-4 true leaf stage (GS12-14) and the 6 true leaf stage (GS 16). The herbicidal compositions were suspended or emulsified in water as distribution medium and sprayed with commercial flat fan nozzles using between 100 and 200 l/ha water.
as §4, with “In the following experiments, the herbicidal activity for the individual herbicidal compositions (solo and mixture applications) was assessed up to 36 days after treatment (DAT). The” for “The”, “assessments” for “evaluation”
(§8) [formula] • where X=effect in percent using herbicide (A) at an application rate a; • Y=effect in percent using herbicide (B) at an application rate b; • E=expected effect (in %) of herbicide (A)+herbicide (B) at application rates a+b.
(§9) The value E corresponds to the effect (plant damage or injury) which is to be expected if the activity of the individual compounds is additive. If the observed effect is higher than the value E calculated according to the Colby equation, a synergistic effect is present.

[5] = tested on: Echinochloa crus-galli; experiment: as above; format: in vivo; conditions: ECHCG, postemergence
Procedure: as §5, §6, §7
as §4, with “In the following experiments, the herbicidal activity for the individual herbicidal compositions (solo and mixture applications) was assessed up to 36 days after treatment (DAT). The” for “The”, “assessments” for “evaluation”
as §8, §9

[6] = tested on: Mercuralis annua; experiment: as above; format: in vivo; conditions: MERAN, postemergence, Saflufenacil 12.5, Pendimethalin 1365 g ai/ha
Procedure: as §5, §6, §7
as §4, with “In the following experiments, the herbicidal activity for the individual herbicidal compositions (solo and mixture applications) was assessed up to 36 days after treatment (DAT). The” for “The”, “assessments” for “evaluation”
as §8, §9

[7] = BBCH 12-14, Flumioxazin 0.5, Bifenox 168 g ai/ha
[8] = BBCH 12-14, Flumioxazin 0.5, Halauxifen 1 g ai/ha
[9] = Saflufenacil 12.5, Pendimethalin 1064 g ai/ha

SMILES | Observed crop damage 21 days after treatment [1, 7] | Observed crop damage 21 days after treatment [1, 8] | Observed crop damage 21 days after treatment [2, 7] | Observed crop damage 21 days after treatment [2, 8] | crop injury [3] | % Herbicidal activity ([4]; Saflufenacil 12.5, Pendimethalin 840 g ai/ha) | % Herbicidal activity [4, 9] | % Herbicidal activity [5, 9] | % Herbicidal activity ([5]; Saflufenacil 12.5, Pendimethalin 1365 g ai/ha) | % Herbicidal activity ([5]; Saflufenacil 50, Pendimethalin 1064 g ai/ha) | % Herbicidal activity [6]
C#CCN1C(=O)COc2cc(F)c(N3C(=O)C4=C(CCCC4)C3=O)cc21 [Flumioxazin, 2-[7-fluoro-3,4-dihydro-3-oxo-4-(2-propyn-1-yl)-2H-1,4-benzoxazin-6-yl]-4,5,6,7-tetrahydro-1H-isoindole-1,3 (2H)-dione] | 65% | 65% | 15% | 15% | without high level of crop injury |  |  |  |  |  | 
CC(C)N(C)S(=O)(=O)NC(=O)c1cc(-n2c(=O)cc(C(F)(F)F)n(C)c2=O)c(F)cc1Cl [Saflufenacil, 2-chloro-5-[3,6-dihydro-3-methyl-2,6-dioxo-4-(trifluoromethyl)-1-(2H)pyrimidinyl]-4-fluoro-N-[[methyl (1-methylethyl)amino]-sulfonyl]benzamide] |  |  |  |  |  | 35% | 60% | 0% | 5% | 0% | 0%
